Source: publication PMC4147775, “Stimulation of Hepatic Apolipoprotein A-I Production by Novel Thieno-Triazolodiazepines: Roles of the Classical Benzodiazepine Receptor, PAF Receptor, and Bromodomain Binding” (Lipid insights, 2013)
Like-named read-outs stand apart in the source and are kept apart here.

Assays:
[1] = system: apoA-I production by Hep-G2 cells; assay: apoA-I production by HepG2 cells (ELISA); type: cell-based, human; conditions: result in words (Figure 5)
Experimental: On the day of the experiment, supernatant medium was discarded and replaced by a solution of test compounds in HCM™ medium, which was prepared from DMSO stock solutions immediately before use. Stock solution concentrations assured that DMSO never exceeded 0.1% in the assay, as DMSO alone exerts significant effects on hepatocyte gene expression. Each concentration was run in triplicate whereas multiple wells were prepared for vehicle (DMSO) controls. The cells were cultured in the presence of the studied compounds and DMSO control for 72 hours at 37°C in 5% CO2 in air. The supernatants were replaced by a fresh dilution of test compounds after 24 hours and 48 hours, respectively. […]
After removal of the supernatants after 72 hours, all wells were washed 3 times with 200 μL isotonic 0.29 MD-mannitol and 25 μL d H2O was added to each well. The protein content of each well was determined using the Pierce® BCA Protein Assay Kit according to kit instructions and calculated as micrograms cellular protein per well.
For apoA-I detection, the human apoA1 ELISA kit from Mabtech Nacka, Sweden (Catalog no. 3710-1H-20) was used. […] Finally, the chromogenic substrate was added, and absorbance was measured at 450 nm.
The apoA-I content of each sample was calculated using the standard curve generated with each plate and was expressed as ng apoA-I per mg of cellular protein.

[2] = molecular target: T1, human recombinant PAF receptor (Homo sapiens, UniProt P25105); assay: Binding to PAF receptor, 3H-C16-PAF, CHO cells; conditions: for competition with labeled PAF: cells expressing the human PAF receptor, result in words (Figure 3B)
T1 construct: expressed in transfected cells; host or cells: CHO cells
T1 sequence (P25105 whole entry): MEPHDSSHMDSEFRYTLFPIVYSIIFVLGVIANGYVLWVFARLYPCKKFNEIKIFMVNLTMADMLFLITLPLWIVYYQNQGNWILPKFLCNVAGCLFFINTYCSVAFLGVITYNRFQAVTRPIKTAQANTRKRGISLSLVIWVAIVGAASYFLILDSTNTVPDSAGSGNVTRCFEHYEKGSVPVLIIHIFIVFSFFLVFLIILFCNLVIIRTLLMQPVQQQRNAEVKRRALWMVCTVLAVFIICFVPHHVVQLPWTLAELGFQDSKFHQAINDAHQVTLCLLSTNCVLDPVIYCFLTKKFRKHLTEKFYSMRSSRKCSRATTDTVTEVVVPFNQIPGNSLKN

[3] = Cytotoxicity: ATP level (Cell Titer Glo); type: cell-based, human; conditions: 72 hours; for ATP level in human hepatocytes: result in words
[4] = system: fibrosarcoma cells (HT1080); conditions: read-out: mitochondrial membrane potential, IC50, cited from earlier work
[5] = system: fibrosarcoma cells (HT1080); assay: Cytotoxicity: mitochondrial membrane potential (TMRM); conditions: for IC50: read-out: mitochondrial membrane potential in fibrosarcoma cells, IC50; for mitochondrial membrane potential in fibrosarcoma cells: 100 μM, result in words
central BZD receptor = assay: Binding to central BZD receptor, 3H-flunitrazepam, rat cerebral cortex membranes; conditions: for competition with labeled flunitrazepam: rat brain membranes, result in words (Figure 3A)
[6] = Metabolic stability in human hepatocytes; type: in vitro ADME; conditions: cryopreserved human hepatocytes, donor 1, 10 μM, read-out: stability in human hepatocytes (% remaining after 120 min)
BRD2(1) = molecular target: T2, BRD2(1) (Homo sapiens, UniProt P25440); assay: Protein stability shift assay (thermal shift), BRD2(1); type: binding; conditions: 10 μM ligand
T2 construct: the second as compared with the first bromodomain of these BRDs
T2 sequence (P25440 74-180 limits assumed): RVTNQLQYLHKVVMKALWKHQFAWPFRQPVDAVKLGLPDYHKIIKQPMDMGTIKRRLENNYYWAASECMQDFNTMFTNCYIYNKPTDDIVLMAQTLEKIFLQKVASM

BRD2(2) = molecular target: T3, BRD2(2) (Homo sapiens, UniProt P25440); assay: Protein stability shift assay (thermal shift), BRD2(2); type: binding; conditions: 10 μM ligand
T3 construct: the second as compared with the first bromodomain of these BRDs
T3 sequence (P25440 344-453 limits assumed): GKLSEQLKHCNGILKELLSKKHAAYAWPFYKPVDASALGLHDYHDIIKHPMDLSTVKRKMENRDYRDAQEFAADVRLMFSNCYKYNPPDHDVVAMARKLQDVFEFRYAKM

BRD3(1) = molecular target: T4, BRD3(1) (Homo sapiens, UniProt Q15059); assay: Protein stability shift assay (thermal shift), BRD3(1); type: binding; conditions: 10 μM ligand
T4 construct: the second as compared with the first bromodomain of these BRDs
T4 sequence (Q15059 34-140 limits assumed): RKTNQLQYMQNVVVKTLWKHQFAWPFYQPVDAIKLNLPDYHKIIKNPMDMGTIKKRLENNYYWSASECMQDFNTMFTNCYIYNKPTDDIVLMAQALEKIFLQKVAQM

BRD4(2) = molecular target: T5, BRD4(2) (Homo sapiens, UniProt O60885); assay: Protein stability shift assay (thermal shift), BRD4(2); type: binding; conditions: 10 μM ligand
T5 construct: the second as compared with the first bromodomain of these BRDs

BRDT(1) = molecular target: T6, BRDT(1) (Homo sapiens, UniProt Q58F21); assay: Protein stability shift assay (thermal shift), BRDT(1); type: binding; conditions: 10 μM ligand
T6 construct: the second as compared with the first bromodomain of these BRDs

BRDT(2) = molecular target: T7, BRDT(2) (Homo sapiens, UniProt Q58F21); assay: Protein stability shift assay (thermal shift), BRDT(2); type: binding; conditions: 10 μM ligand
T7 construct: the second as compared with the first bromodomain of these BRDs

BAZ2B = molecular target: T8, BAZ2B (Homo sapiens, UniProt Q9UIF8); assay: Protein stability shift assay (thermal shift), BAZ2B; type: binding; conditions: 10 μM ligand
T8 construct: Thermal shift (Δtm^obs) of human bromodomains in the presence of 10 μM compound
T8 sequence (Q9UIF8 2060-2164 limits assumed): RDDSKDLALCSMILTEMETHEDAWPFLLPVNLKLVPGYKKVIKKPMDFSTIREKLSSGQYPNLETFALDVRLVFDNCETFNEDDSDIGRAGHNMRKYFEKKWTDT

CREBBP = molecular target: T9, CREBBP (Homo sapiens, UniProt Q92793); assay: Protein stability shift assay (thermal shift), CREBBP; type: binding; conditions: 10 μM ligand
T9 construct: Thermal shift (Δtm^obs) of human bromodomains in the presence of 10 μM compound
T9 sequence (Q92793 1085-1192 limits assumed): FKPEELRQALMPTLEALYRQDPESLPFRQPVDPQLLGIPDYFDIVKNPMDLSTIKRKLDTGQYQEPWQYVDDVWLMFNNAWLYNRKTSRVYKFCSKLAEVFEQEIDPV

PB1(5) = molecular target: T10, PB1(5) (Homo sapiens, UniProt Q86U86); assay: Protein stability shift assay (thermal shift), PB1(5); type: binding; conditions: 10 μM ligand
T10 construct: Thermal shift (Δtm^obs) of human bromodomains in the presence of 10 μM compound
T10 sequence (Q86U86 653-763 limits assumed): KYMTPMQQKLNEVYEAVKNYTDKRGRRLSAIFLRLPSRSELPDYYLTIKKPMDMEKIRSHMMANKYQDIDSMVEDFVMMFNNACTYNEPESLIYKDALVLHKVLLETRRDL

PCAF = molecular target: T11, PCAF (Homo sapiens, UniProt Q92831); assay: Protein stability shift assay (thermal shift), PCAF; type: binding; conditions: 10 μM ligand
T11 construct: Thermal shift (Δtm^obs) of human bromodomains in the presence of 10 μM compound
T11 sequence (Q92831 723-827 limits assumed): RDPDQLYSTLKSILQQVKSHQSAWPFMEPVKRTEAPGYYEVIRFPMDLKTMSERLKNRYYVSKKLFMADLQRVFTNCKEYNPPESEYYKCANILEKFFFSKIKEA

[7] = system: apoA-I production by primary human hepatocytes; assay: apoA-I production by primary human hepatocytes (ELISA); type: cell-based; conditions: cultured human hepatocytes, 72 hours, maximal stimulation
apoA-I = system: apoA-I; parameters: method as in PMID 21449977; conditions: mice transgenic for human apoA-I; cited from earlier work
BRD3(2) = BRD3(2) (Homo sapiens, UniProt Q15059); assay: Protein stability shift assay (thermal shift), BRD3(2); type: binding; parameters: the second as compared with the first bromodomain of these BRDs; conditions: 10 μM ligand
BRD3(2), sequence (Q15059 306-415 limits assumed): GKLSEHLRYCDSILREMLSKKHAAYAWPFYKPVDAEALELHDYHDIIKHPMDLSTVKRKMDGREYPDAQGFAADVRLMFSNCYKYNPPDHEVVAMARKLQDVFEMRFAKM

BRD4(1) = BRD4(1) (Homo sapiens, UniProt O60885); assay: Protein stability shift assay (thermal shift), BRD4(1); type: binding; parameters: the second as compared with the first bromodomain of these BRDs; conditions: 10 μM ligand

## Cc1sc2c(c1C)C(c1ccc(Cl)cc1)=NC(CC(=O)OC(C)(C)C)c1nnc(C)n1-2 (single isomer, unassigned; (+)) [(+)-JQ1, reference compound]
[1]
  effect on apoA-I production: very effective stimulator of apoA-I production

## CCCCCCCCCCCCCCCCOC[C@H](COP(=O)([O-])OCC[N+](C)(C)C)OC(C)=O [C16-PAF, reference compound]
[2]; 3H-C16-PAF, CHO cells expressing human recombinant PAF receptor, reference
  IC50: 0.7 nM

## COCc1c(C(C)C)nc(C(C)C)c(/C=C/[C@@H](O)C[C@@H](O)CC(=O)O)c1-c1ccc(F)cc1 [Cerivastatin]
[3]; 20 μM
  ATP level in human hepatocytes, reduction: 59 ± 10% reduction at 20 μM (n = 3)
[4]; ref CEREP Cytotoxicity Application Note
  IC50: 660 nM
[4]; ref CEREP study report 14547
  IC50: 1100 nM
[4]; ref O’Brien et al. Arch toxicol. 2006;80:580–604
  IC50: 3000 nM
[5]; Homo sapiens, HT-1080, 72 h
  IC50: 2600 nM

## CN1C(=O)CN=C(c2ccccc2)c2cc(Cl)ccc21 [Diazepam, reference compound]
Central BZD receptor; 3H-flunitrazepam, rat cerebral cortex membranes, reference
  IC50: 20 nM

## O=C(O)Cc1ccccc1Nc1c(Cl)cccc1Cl [Diclofenac, reference compound]
[6]
  remaining at 2 h, 10 μM: 70 ± 10%

## N#CC(C#N)=NNc1ccc(OC(F)(F)F)cc1 [FCCP, reference compound]
[3]; 100 μM
  ATP level in human hepatocytes, reduction: 96 ± 0.7% reduction at 100 μM (n = 2)
[5]; 72 hours
  IC50: 17000 nM

## Cc1nnc2n1-c1sccc1C(c1ccccc1)=NC2 [MDCO-3760]
BRD2(1)
  Thermal shift (ΔTm obs) BRD2(1): 0.1
BRD2(2)
  Thermal shift (ΔTm obs) BRD2(2): 2.6
BRD3(1)
  Thermal shift (ΔTm obs) BRD3(1): 1.9
BRD4(2)
  Thermal shift (ΔTm obs) BRD4(2): 2.8
BRDT(1)
  Thermal shift (ΔTm obs) BRDT(1): 0.4
BRDT(2)
  Thermal shift (ΔTm obs) BRDT(2): 3.2
BAZ2B
  Thermal shift (ΔTm obs) BAZ2B: 0.1
CREBBP
  Thermal shift (ΔTm obs) CREBBP: −0.1
PB1(5)
  Thermal shift (ΔTm obs) PB1(5): −4.7
PCAF
  Thermal shift (ΔTm obs) PCAF: 2.2
[7]
  stimulation of apoA-I production: up to 3 fold
Central BZD receptor
  competition with labeled flunitrazepam: able to compete
[2]
  competition with labeled PAF: able to compete
[6]
  remaining at 2 h, 10 μM: 105%
[3]; 100 μM
  ATP level in human hepatocytes: no effect at 100 μM (n = 3)
apoA-I
  plasma levels of apoA-I: increased
[5]; 72 hours
  mitochondrial membrane potential in fibrosarcoma cells: no effect at 100 μM (n = 5)
BRD3(2)
  Thermal shift (ΔTm obs) BRD3(2): 3.0
BRD4(1)
  Thermal shift (ΔTm obs) BRD4(1): 2.7

## Cc1nnc2n1-c1sccc1C(c1ccc3c(c1)OCO3)=NC2 [MDCO-3783]
BRD2(1)
  Thermal shift (ΔTm obs) BRD2(1): 0.3
BRD2(2)
  Thermal shift (ΔTm obs) BRD2(2): 1.8
BRD3(1)
  Thermal shift (ΔTm obs) BRD3(1): 1.8
BRD4(2)
  Thermal shift (ΔTm obs) BRD4(2): 1.9
BRDT(1)
  Thermal shift (ΔTm obs) BRDT(1): 0.3
BRDT(2)
  Thermal shift (ΔTm obs) BRDT(2): 2.4
BAZ2B
  Thermal shift (ΔTm obs) BAZ2B: 0.0
CREBBP
  Thermal shift (ΔTm obs) CREBBP: −0.1
PB1(5)
  Thermal shift (ΔTm obs) PB1(5): 0.0
PCAF
  Thermal shift (ΔTm obs) PCAF: 1.9
[7]
  stimulation of apoA-I production: up to 3 fold
[1]
  effect on apoA-I production: potency and efficacy comparable to that of (−)-JQ1
Central BZD receptor
  competition with labeled flunitrazepam: did not compete
[2]
  competition with labeled PAF: only weakly displaced
[6]
  remaining at 2 h, 10 μM: 97%
[3]; 100 μM
  ATP level in human hepatocytes: no effect at 100 μM (n = 3)
[5]; 72 hours
  mitochondrial membrane potential in fibrosarcoma cells: no effect at 100 μM (n = 5)
BRD3(2)
  Thermal shift (ΔTm obs) BRD3(2): 2.1
BRD4(1)
  Thermal shift (ΔTm obs) BRD4(1): 2.4

## C[C@]12CC[C@H]3[C@@H](CCC4=CC(=O)CC[C@@]43C)[C@@H]1CC[C@@H]2O [Testosterone, reference compound]
[6]
  remaining at 2 h, 10 μM: 64%
